Where two headings read alike, the source gives them in different places.
How the values were obtained:
Fmr1 knock-out mice = details: Lim et al. 2014; cited from earlier work
dopamine D2 receptor [1] = target: T1, dopamine D2 receptor (Homo sapiens, UniProt P14416); experiment: functional activity at dopamine D2 receptor; type: biochemical; details: Compound 2, company data
[2] = target: T2, serotonin 5-HT1A receptor (Homo sapiens, UniProt P08908); details: Compound 2, company data
T2 sequence (P08908 1-422): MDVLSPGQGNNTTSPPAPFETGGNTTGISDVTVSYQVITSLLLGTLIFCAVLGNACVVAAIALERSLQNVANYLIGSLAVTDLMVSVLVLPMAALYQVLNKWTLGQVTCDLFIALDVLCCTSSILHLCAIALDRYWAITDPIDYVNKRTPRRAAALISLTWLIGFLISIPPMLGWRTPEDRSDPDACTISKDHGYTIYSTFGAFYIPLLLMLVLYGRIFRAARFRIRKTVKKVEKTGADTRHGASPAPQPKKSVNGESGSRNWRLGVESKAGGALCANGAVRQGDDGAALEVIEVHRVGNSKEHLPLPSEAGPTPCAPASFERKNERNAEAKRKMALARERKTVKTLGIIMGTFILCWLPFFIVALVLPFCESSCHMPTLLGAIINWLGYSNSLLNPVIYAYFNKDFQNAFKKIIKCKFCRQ

[3] = target: T3, serotonin 5-HT2B receptor (Homo sapiens, UniProt P41595); experiment: functional activity at serotonin 5-HT2B receptor; type: biochemical; details: Compound 2, company data
T3 sequence (P41595 whole entry): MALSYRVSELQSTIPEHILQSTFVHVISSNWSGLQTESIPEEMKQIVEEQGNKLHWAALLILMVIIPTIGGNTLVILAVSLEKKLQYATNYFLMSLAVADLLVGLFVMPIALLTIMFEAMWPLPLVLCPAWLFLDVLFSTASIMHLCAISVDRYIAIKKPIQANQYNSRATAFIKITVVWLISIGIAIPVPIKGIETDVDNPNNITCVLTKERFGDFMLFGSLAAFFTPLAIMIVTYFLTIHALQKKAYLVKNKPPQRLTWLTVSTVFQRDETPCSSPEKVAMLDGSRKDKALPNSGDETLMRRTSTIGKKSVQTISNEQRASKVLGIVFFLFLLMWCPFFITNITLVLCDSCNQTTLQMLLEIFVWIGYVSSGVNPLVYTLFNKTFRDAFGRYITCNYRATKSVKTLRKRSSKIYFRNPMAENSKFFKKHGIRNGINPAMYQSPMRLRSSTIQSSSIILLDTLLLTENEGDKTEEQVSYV

[4] = target: T3, serotonin 5-HT2B receptor; details: in vitro, literature; cited from earlier work
[5] = system: ASD mouse models (prenatal valproate, Cntnap2 knockout, NR1 hypomorph, BTBR); details: several ASD mouse models, literature; cited from earlier work
[6] = target: T2, serotonin 5-HT1A receptor; details: literature; cited from earlier work
[7] = target: T2, serotonin 5-HT1A receptor; details: in vitro, literature; cited from earlier work
ASD patients = details: cited from earlier work
[8] = system: prenatally valproate-treated mice; details: Hara et al. 2017, cited from earlier work
[9] = target: T3, serotonin 5-HT2B receptor; details: literature; cited from earlier work
dopamine D2 receptor [10] = target: T1, dopamine D2 receptor; details: cited from earlier work
dopamine D2 receptors = details: in vivo; cited from earlier work

T1 sequence (P14416 whole entry): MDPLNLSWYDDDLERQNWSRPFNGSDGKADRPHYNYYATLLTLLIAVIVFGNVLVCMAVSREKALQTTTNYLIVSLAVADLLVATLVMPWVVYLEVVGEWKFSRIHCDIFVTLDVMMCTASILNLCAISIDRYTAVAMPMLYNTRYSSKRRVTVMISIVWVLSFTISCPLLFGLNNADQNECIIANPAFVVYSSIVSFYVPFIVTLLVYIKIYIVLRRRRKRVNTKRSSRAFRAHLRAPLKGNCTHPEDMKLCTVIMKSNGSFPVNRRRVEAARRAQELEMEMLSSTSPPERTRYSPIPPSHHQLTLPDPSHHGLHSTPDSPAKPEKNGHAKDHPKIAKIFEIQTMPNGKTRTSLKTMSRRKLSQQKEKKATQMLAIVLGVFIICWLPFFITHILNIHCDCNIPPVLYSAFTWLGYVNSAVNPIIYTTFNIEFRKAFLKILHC

CC(N)Cc1c[nH]c2ccc(OCc3cccs3)cc12 (centres unmarked) [BW723C86]
effect on cognitive abilities (Fmr1 knock-out mice): improvement of cognitive abilities

O=C(N[C@H]1CC[C@H](CCN2CCN(c3cccc(Cl)c3Cl)CC2)CC1)N1CCOCC1 [Compound 2, trans-N-(4-{2-[4-(2,3-dichloro-phenyl)-piperazine-1-yl]-ethyl}-cyclohexyl)-morpholine-4 carboxamide]
functional character at dopamine D2 receptor (dopamine D2 receptor [1]): partial agonist
functional character at serotonin 5-HT1A receptor [2]: weak partial agonists
functional character at serotonin 5-HT2B receptor [3]: full antagonist

O=C1CCc2ccc(OCCCCN3CCN(c4cccc(Cl)c4Cl)CC3)cc2N1 [aripiprazole]
affinity for 5-HT2B receptor (in words) [4]: high affinity
effect on social behavior deficits [5]: neither aripiprazole nor risperidone could improve
functional character at serotonin 5-HT1A receptor [6]: partial agonist
affinity for 5-HT1A receptor (in words) [7]: high affinity
lethargy/social withdrawal subscale of the Aberrant Behavioral Checklist (ASD patients; open label trials): did not improve
effect on core behavioral deficits ([8]; acute treatment): without effect
effect on core behavioral deficits ([8]; chronic administration): improved core behavioral deficits

CN(C)C(=O)N[C@H]1CC[C@H](CCN2CCN(c3cccc(Cl)c3Cl)CC2)CC1 [cariprazine, trans-N-[4-[2-[4-(2,3-dichlorophenyl)piperazin-1-yl]ethyl]cyclohexyl]-N′,N′-dimethylurea]
functional character at serotonin 5-HT1A receptor [6]: weak partial agonists
intrinsic activity at serotonin 5-HT1A receptor [6]: 38%
functional character at serotonin 5-HT2B receptor [9]: full antagonist
functional character at dopamine D2 receptor (dopamine D2 receptor [10]): partial agonist

Cc1nc2n(c(=O)c1CCN1CCC(c3noc4cc(F)ccc34)CC1)CCCC2 [risperidone]
effect on social behavior deficits [5]: neither aripiprazole nor risperidone could improve
occupancy of dopamine D2 receptors (dopamine D2 receptors): occupy dopamine D2 receptors
effect on core symptoms (ASD patients; children with pervasive developmental disorders with high baseline irritability): modest improvements
effect on core behavioral deficits ([8]; acute treatment): without effect
effect on core behavioral deficits ([8]; chronic administration): improved core behavioral deficits
